# In patent publication US20120082706A1, “MEDICAL DEVICE FOR DRUG DELIVERY” (TERUMO KABUSHIKI KAISHA, priority 2009, published 2012):
# Test: Differential scanning calorimetry (DSC) of drug/compound mixtures (solid solution screening)
# Format: physicochemical
# Method: For the purpose of screening adequate solid dispersions, several exemplary mixtures were prepared, each composed of paclitaxel and a compound of different kind, and these mixtures underwent differential scanning calorimetry (DSC) using a differential scanning calorimeter.
# The paclitaxel is a product of SIGMA Corp.
# The thus prepared solution was completely freed of ethanol or acetone by vacuum drying. The resulting dry product was placed in an aluminum pan and thereafter underwent DSC in a nitrogen atmosphere at a heating rate of 10° C./min.
# For the purpose of observing the properties of the solid solution of HSPC and a drug other than paclitaxel, there were prepared a mixture of HSPC and sirolimus and a mixture of HSPC and simvastatin, as shown in Table 5 below.
smiles,measurement,setting,value
"CC(=O)O[C@H]1C(=O)[C@@]2(C)[C@H]([C@H](OC(=O)c3ccccc3)[C@]3(O)C[C@H](OC(=O)[C@H](O)[C@@H](NC(=O)c4ccccc4)c4ccccc4)C(C)=C1C3(C)C)[C@]1(OC(C)=O)CO[C@@H]1C[C@@H]2O [Comparative Example 4, paclitaxel]",endothermic peak due to fusion of paclitaxel,DSC thermogram,gave an endothermic peak
same,Peak due to fusion of paclitaxel,"DSC, nitrogen atmosphere, 10° C./min, 10 mg compound + 10 mg paclitaxel, dried from ethanol or acetone",Yes
